These results are taken from publication PMC10650714, “Double Attack to Oxidative Stress in Neurodegenerative Disorders: MAO-B and Nrf2 as Elected Targets” (Molecules, 2023).

Data set [1] concerns the target T1, recombinant hMAO-A (Homo sapiens, UniProt P21397).
T1 construct: purchased Fluka-Sigma-Aldrich s.r.l; (Italy); host or cells: Baculovirus infected BT1 cells
T1 sequence (P21397 1-527): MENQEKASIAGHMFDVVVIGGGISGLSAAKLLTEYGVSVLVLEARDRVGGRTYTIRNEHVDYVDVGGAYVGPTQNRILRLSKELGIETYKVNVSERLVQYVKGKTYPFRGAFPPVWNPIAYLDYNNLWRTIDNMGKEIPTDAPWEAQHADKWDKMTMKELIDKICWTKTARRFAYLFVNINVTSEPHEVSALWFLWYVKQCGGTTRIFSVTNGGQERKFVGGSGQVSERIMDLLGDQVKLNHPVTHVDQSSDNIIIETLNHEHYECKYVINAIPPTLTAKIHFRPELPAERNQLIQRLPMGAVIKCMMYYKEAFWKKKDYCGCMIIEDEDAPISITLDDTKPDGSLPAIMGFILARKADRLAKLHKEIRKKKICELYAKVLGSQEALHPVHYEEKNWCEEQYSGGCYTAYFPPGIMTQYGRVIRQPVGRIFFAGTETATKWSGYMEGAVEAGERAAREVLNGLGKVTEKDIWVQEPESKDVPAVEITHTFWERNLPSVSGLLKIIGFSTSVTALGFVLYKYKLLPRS
Nature of the data set: hMAO-A activity assay (kynuramine, fluorimetric). The following applies: kynuramine [S] = 10 µM, pH 7.4, 37 °C; mean ± S.D.; read-out: hMAO-A Ki. It is filed as biochemical. How it is done: (§1) Human recombinant hMAO-A and hMAO-B expressed in Baculovirus infected BT1 cells (5 mg/mL) and horseradish peroxidases were purchased from Fluka-Sigma-Aldrich s.r.l. (Italy). A Cary Eclipse fluorimeter (Varian Inc., Palo Alto, CA, USA) was used for fluorescence measurements. […] At first, the peroxidase-coupled continuous assay that detect the H2O2 generation rate was considered. It uses the Amplex Red reagent as the fluorogenic substrate for horseradish peroxidase.
(§2) By applying this method, hMAO activity assays were performed in K/Pi 0.1 M, EDTA 1 mM (total volume: 200 μL; pH 7.4, T = 37 °C), in the presence and in absence of various concentrations of the different compounds (0.2–20 μM and 2–50 μM in the case of hMAO–B and hMAO-A, respectively).
(§3) MAOs stock solutions were diluted with assay buffer in the presence or absence of the tested compound to obtain a final concentration of 0.005 mg/mL for MAO-A and 0.010 mg/mL for MAO-B; then, kynuramine (10–300 μM final concentration) was added to the assay solution. After 45–60 min of incubation at 37 °C, the reaction was stopped by the addition of 2 M NaOH (80 μL) and 480 μL of distilled water. Kynuramine deaminated by MAO spontaneously cyclizes to provide 4-hydroxyquinoline, the amount of which was determined by the fluorescence intensity of the peak of its emission spectra (λexc = 330 nm and λem 330–530 nm). Then, the rate of reaction was calculated using a specific calibration curve (in the presence of the same amount of the tested compound) built with the standard 4-hydroxyquinoline.
(§4) Under these experimental conditions, the Michaelis–Menten equation for rate of reaction, can be simplified as follows: V ≈ (Vmax/KM) [E]0[S]0 [49]. In the presence of an inhibitor, one or both the kinetic parameters, KM and Vmax, might be affected by its presence, depending on the inhibition mechanism. In particular, in the presence of a reversible inhibitor, both the kinetic parameters could be affected, and the apparent kinetic parameter would then become: KM I = KM,0 (1 + [I]/Ki)/(1 + [I]/(αKi)), and VmaxI = Vmax0/(1 + [I]/(αKi)), where α is the factor indicating how much the dissociation constant of the enzyme-substrate-I complex is different from that of the enzyme–I complex (also named Ki). Consequently, the ratio of the initial rate of reaction in the absence (Vo) and in the presence (VI) of the tested compound (Vo/VI) can be simplified to the ratio of (Vmax/KM)o/(Vmax/KM)I ≈ (1 + [I]/Ki).
(§5) To study the mechanism of inhibition, the steady-state kinetic parameters (Vmax and Km) of MAO-A and MAO-B were determined by performing experiments at different substrate concentrations and in the absence and presence of different concentrations of the tested compound. Vmax and Km were calculated by fitting the Michaelis–Menten equation to the experimental data (initial rate of reactions vs. substrate concentrations), with Sigma Plot software, version 9.0 (Jandel Scientific, San Rafael, CA, USA).

Data set [2] has as its target T2, recombinant hMAO-B (Homo sapiens, UniProt P27338).
T2 construct: purchased Fluka-Sigma-Aldrich s.r.l; (Italy); host or cells: Baculovirus infected BT1 cells
T2 sequence (P27338 1-520): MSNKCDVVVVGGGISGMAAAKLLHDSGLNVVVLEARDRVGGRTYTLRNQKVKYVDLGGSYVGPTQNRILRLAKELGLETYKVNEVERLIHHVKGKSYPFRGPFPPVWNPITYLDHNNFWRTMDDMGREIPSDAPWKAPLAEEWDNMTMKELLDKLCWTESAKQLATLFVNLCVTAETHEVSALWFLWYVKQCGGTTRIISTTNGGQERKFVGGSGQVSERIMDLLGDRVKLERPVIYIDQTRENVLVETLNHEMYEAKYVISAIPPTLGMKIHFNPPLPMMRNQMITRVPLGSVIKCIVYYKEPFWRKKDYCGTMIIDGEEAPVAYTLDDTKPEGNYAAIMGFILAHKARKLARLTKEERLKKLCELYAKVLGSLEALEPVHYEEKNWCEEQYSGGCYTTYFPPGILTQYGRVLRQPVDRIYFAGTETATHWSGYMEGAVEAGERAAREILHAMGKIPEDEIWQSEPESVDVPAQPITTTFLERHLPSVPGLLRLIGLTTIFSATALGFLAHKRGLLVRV
Nature of the data set: hMAO-B activity assay (kynuramine, fluorimetric). The format is biochemical. The following applies: for SI (selectivity index): calculated as hMAO-A Ki/hMAO-B Ki; for Ki: kynuramine [S] = 10 µM, pH 7.4, 37 °C, mean ± S.D., read-out: hMAO-B Ki. As to the method:
as §1, §2, §3, §4, §5

Data set [3] deals with ROS production in HepG2 cells. Nature of the data set: Intracellular ROS generation rate (DCF-DA). The format is cell-based, human. The following applies: 5 µM, antimycin A 10 µM, 30 min. How it is done: Thus, on the basis of the hMAO-B inhibitory potency and on the Nrf2 nuclear translocation results, the most promising compounds 2 and 3 were chosen for the evaluation of their antioxidant activity in the human hepatic HepG2 cells, a valuable cellular system to assess antioxidant properties of the compounds [43, 44]. CAPE and pioglitazone were also tested as reference compounds. HepG2 cells were pre-loaded with dichlorofluorescein diacetate (DCF-DA), a fluorescent probe to detect ROS generation. […] Immediately, antimycin A (10 µM), an inhibitor of the complex III of the mitochondrial electron transport chain, was also added as an ROS inducer. The oxidation rate of DCF, that is, the generation rate of ROS, was detected for 30 min, and for each sample, the corresponding control was also run.
HepG2 cells (human hepatocellular carcinoma) were purchased from the American Type Culture Collection (ATCC HB-8065). Cells were grown in MEM (M0894, Merck Life Sciences S.r.l., Milan, Italy) supplemented with 2.2 g/L NaHCO3 (S5761, Merck Life Sciences S.r.l., Milan, Italy), 100 U/mL penicillin, 100 μg/mL streptomycin and 0.25 μg/mL amphotericin B (A5955, Merck Life Sciences S.r.l., Milan, Italy) and 10% foetal calf serum (F7524, Merck Life Sciences S.r.l., Milan, Italy). Cells were cultured at 37 °C in a humidified atmosphere incubator containing 5% carbon dioxide in air.
The intracellular production of ROS was detected via a fluorometric method using 2′,7′-dichlorofluorescein diacetate (D6883, Merck Life Sciences S.r.l., Milan, Italy) as probe. HepG2 cells (6 × 10^3/well) were seeded into a 96-well culture plate in 200 µL of a complete growth medium and incubated for 48 h in standard conditions. The medium was then removed, and cells were washed with 5 mM of PBS–glucose. Then, cells were loaded with 10 μM of 2′,7′-dichlorofluorescein diacetate in 5 mM of PBS–glucose at 37 °C in the dark for 20 min, washed with 5 mM of PBS–glucose, treated with the test compounds at indicated concentrations in 5 mM of PBS–glucose and then analysed. Fluorescence intensity was recorded for 30 min at λemx = 485 nm and λem = 527 nm, using a Victor X3 Multilabel plate reader (Perkin Elmer). The rate of ROS generation was calculated relative to untreated cells (controls) after subtraction of autofluorescence value. Results were presented as the mean values of at least three independent experiments performed with six replicates.

Data set [4] concerns Nrf2 nuclear translocation in SH-SY5Y cells. Nature of the data set: Nrf2 nuclear translocation (Western blot of nuclear extracts). The following applies: 5 μM, 3 h. The format is cell-based, human. From the text: In physiological conditions, the repressor Keap1 traps Nrf2 at the cytosolic level, preventing the activation of Nrf2 pathway. The disruption of Keap1–Nrf2 interaction allows for Nrf2 nuclear translocation, thus resulting in the transcriptional activation of its target cytoprotective genes. […] We and others have previously developed several compounds bearing caffeic and ferulic fragments able to activate Nrf2 in terms of the up-regulation of Nrf2 expression, translocation into the nucleus and induction of the Nrf2-dependent defensive genes, with (pro)electrophilic features emerging as key players. Herein, to analyse the effect of the new molecules on the Nrf2 downstream cascade, the ability of compounds 1–5 to increase Nrf2 nuclear translocation was preliminary evaluated as a pivotal step in Nrf2 signalling activation (Figure 6). Based on MAO-B inhibitory potency and cell toxicity assay, compounds were studied in SH-SY5Y human neuroblastoma cells at the concentration of 5 μM. Given the high structural analogy with our derivatives, we selected the well-known Nrf2 inducer CAPE [37, 38] as the reference compound, and verified its ability to induce Nrf2 nuclear translocation at different concentrations, ranging from 5 µM to 50 µM in our experimental model (Figure S6). Nrf2 nuclear content was assessed via Western blot analysis. […] Consistently, data from literature highlight discrepancies about pioglitazone-mediated Nrf2 activation, indicating its ability to activate Nrf2 in longer timeframes and different in vitro and in vivo experimental conditions. […] The preliminary docking performed on human Keap-1 confirms the excellent positioning of compound 2 within the BTB domain pocket, where cysteine 151 is located (see Figure S5). […] Particularly, all these new molecules hold the characteristic (pro)electrophilic fragments, which however, in this case, resulted to be insufficient to activate Nrf2, as reported for other ferulic and caffeic derivatives. In this regard, optimal target interaction might play a major role, but further biological investigations are needed to fully clarify the mechanism of Nrf2 activation and the effect on the downstream expression of cytoprotective genes.
SH-SY5Y cells (5 × 106) were seeded in […] dishes and treated for 3 h with 5 μM compounds; afterward, the medium was removed, and cells were washed twice with ice-cold PBS. Cells were subsequently homogenized 15 times using a glass−glass Dounce homogenizer in 0.32 M sucrose, buffered with 20 mM Tris- HCl (pH 7.4), containing 2 mM EDTA, 0.5 mM EGTA, 50 mM β-mercaptoethanol and 20 μg/mL leupeptin, apotrinin and pepstatin. The homogenate was centrifuged at 300× g for 5 min to obtain the nuclear fraction. An aliquot of the nuclear fraction was used for protein assay via the Bradford method, whereas the remaining was boiled for 5 min after dilution with sample buffer and subjected to polyacrylamide gel electrophoresis and immunoblotting, as described.
In general terms: Immunoblotting shows a protein as a band on a membrane.

SMILES strings stand for the structures. Counter-ions that a name gives are not always drawn.

Regarding `COC(=O)/C=C/C(=O)Oc1ccc(CC2SC(=O)NC2=O)cc1` (centres unmarked) (as salt: fumarate) [Compound 1, 4-((2,4-Dioxothiazolidin-5-yl)methyl)phenyl Methyl Fumarate], the melting point (as a rule, the temperature of the solid-liquid transition) was in the range of 150 to 151 °C.
With `COC(=O)/C=C/C(=O)Oc1ccc(CC2SC(=O)NC2=O)cc1` (centres unmarked) [Compound 1, 4-((2,4-Dioxothiazolidin-5-yl)methyl)phenyl Methyl Fumarate], the Ki – broadly, a dissociation constant, usually derived from enzyme kinetics or from competition with a known ligand – in data set [1] is 25 ± 4 µM. Further, in data set [2], the “decrease in hMAO-B inhibitory potency in comparison with pioglitazone” value was found to be 50 times, the “SI (selectivity index)” value is given as 8.0 and the Ki worked out at 3.14 ± 0.2 µM.
As for `COc1cc(/C=C/C(=O)Oc2ccc(CC3SC(=O)NC3=O)cc2)ccc1O` (centres unmarked) [Compound 3, 4-((2,4-Dioxothiazolidin-5-yl)methyl)phenyl (E)-3-(4-hydroxy-3-methoxyphenyl)acrylate], the melting point lay in the range of 155 to 156 °C. Further, the “effect on antimycin A-induced ROS” value in data set [3] is given as “almost abolish the effect of antimycin A stimulus”. The Ki in data set [1] is 32 ± 2 µM. Besides, in data set [2], the “SI (selectivity index)” value was 32.3 and the Ki is 0.99 ± 0.15 µM.
`O=C(/C=C/c1ccc(O)c(O)c1)Nc1ccc(CC2SC(=O)NC2=O)cc1` (centres unmarked) [Compound 4, (E)-3-(3,4-Dihydroxyphenyl)-N-(4-((2,4-dioxothiazolidin-5-yl)methyl)phenyl)acrylamide] gave a melting point of 148 to 149 °C. Moreover, the inhibitory constant (Ki) in data set [1] was 39 ± 5 µM. Moreover, in data set [2], the “SI (selectivity index)” value is reported as 15.6 and the Ki came out at 2.5 ± 1 µM. Also, in data set [4], the Nrf2 nuclear translocation entry is “promoted Nrf2 translocation at a lower extent”.
As to `COc1cc(/C=C/C(=O)Nc2ccc(CC3SC(=O)NC3=O)cc2)ccc1O` (centres unmarked) [Compound 5, (E)-N-(4-((2,4-Dioxothiazolidin-5-yl)methyl)phenyl)-3-(4-hydroxy-3-methoxyphenyl)acrylamide], the melting point is 151 to 152 °C. Moreover, the inhibition constant (Ki) in data set [1] worked out at 47 ± 4 µM. In addition, in data set [2], the “SI (selectivity index)” value is recorded as 14.2 and the Ki came to 3.3 ± 1 µM. Moreover, the Nrf2 nuclear translocation entry in data set [4] is on record as “promoted Nrf2 translocation at a lower extent”.
